Test results: US20150105252A1, “SUBSTITUTED PYRAZOLES AS HERBICIDES” (E I DU PONT DE NEMOURS AND COMPANY, priority 2013, published 2015)

Legend:
foxtail, giant = assay: Test C preemergence; format: in vivo, Setaria faberii; conditions: for Foxtail, Giant plant response rating / Plant response rating, Foxtail, Giant: preemergence; for Plant response rating, Foxtail, Giant: 125 g ai/ha, scale 0 to 100, 0 = no effect, 100 = complete control
Outline: (§1)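 Pre- and postemergence greenhouse screen; vehicle was a non-phytotoxic solvent mix with surfactant. Preemergence: treatment applied right after sowing into loam and sand. Postemergence: treated at 1–4 leaves. Visual rating at 13–15 days, 100 = complete control.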

kochia = assay: Test C postemergence; format: in vivo, Kochia scoparia; conditions: for Plant response rating (scale of 0 to 100 where 0 is no effect and 100 is complete control), Kochia: Postemergence, 31 g ai/ha, visually evaluated after 13 to 15 days; for Kochia plant response rating / Plant response rating, Kochia: postemergence; for Kochia plant response rating: 62 g ai/ha, scale 0 to 100
Outline: as §1

ragweed [1] = assay: Test C preemergence; format: in vivo, Ambrosia elation; conditions: for Ragweed plant response rating / Plant response rating, Ragweed: preemergence; for Plant response rating, Ragweed: 125 g ai/ha, scale 0 to 100, 0 = no effect, 100 = complete control
Outline: as §1

pigweed [2] = assay: Test A preemergence; format: in vivo, Amaranthus retroflexus; conditions: preemergence
Outline: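 Injury readout: eye-scored versus untreated controls, 0 to 100. Exposure period: ~10 days, greenhouse. Application: soil-directed spray over sown seed (pre) or spray on seedlings 2–10 cm tall with one or two leaves (post), compound carried in non-phytotoxic solvent including surfactant.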

soybean = assay: Test C postemergence; format: in vivo, Glycine max; conditions: for Soybean plant response rating / Plant response rating, Soybean: postemergence
Outline: as §1

ragweed [3] = assay: Test C postemergence; format: in vivo, Ambrosia elation
Outline: as §1

pigweed [4] = assay: Test C preemergence; format: in vivo, Amaranthus retroflexus; conditions: for Pigweed plant response rating / Plant response rating, Pigweed: preemergence; for Plant response rating, Pigweed: 125 g ai/ha, scale 0 to 100, 0 = no effect, 100 = complete control
Outline: as §1

barnyardgrass = assay: Test B flood; format: in vivo, Echinochloa crus-galli; conditions: 250 g ai/ha, visual rating on 0 to 100 scale (0 no effect, 100 complete control), 13 to 15 days
Outline: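 Each compound is applied to the floodwater of pots holding 2-leaf seedlings, water standing 3 cm over the soil throughout. Plants stay in a greenhouse 13 to 15 days before visual scoring against controls from 0 (no effect) to 100 (complete control).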

nutsedge, yellow = assay: Test C postemergence; format: in vivo, Cyperus esculentus; conditions: for Plant response rating (scale of 0 to 100 where 0 is no effect and 100 is complete control), Nutsedge, Yellow: Postemergence, 31 g ai/ha, visually evaluated after 13 to 15 days; for Nutsedge, Yellow plant response rating / Plant response rating, Nutsedge, Yellow: postemergence; for Nutsedge, Yellow plant response rating: 62 g ai/ha, scale 0 to 100
Outline: as §1

oilseed rape [5] = assay: Test C preemergence; format: in vivo, Brassica napus; conditions: for Oilseed Rape plant response rating / Plant response rating, Oilseed Rape: preemergence; for Plant response rating, Oilseed Rape: 125 g ai/ha, scale 0 to 100, 0 = no effect, 100 = complete control
Outline: as §1

oat, wild = assay: Test C postemergence; format: in vivo, Avena fatua; conditions: for Plant response rating (scale of 0 to 100 where 0 is no effect and 100 is complete control), Oat, Wild: Postemergence, 31 g ai/ha, visually evaluated after 13 to 15 days; for Oat, Wild plant response rating / Plant response rating, Oat, Wild: postemergence; for Oat, Wild plant response rating: 62 g ai/ha, scale 0 to 100
Outline: as §1

oilseed rape [6] = assay: Test C postemergence; format: in vivo, Brassica napus; conditions: for Oilseed Rape plant response rating / Plant response rating, Oilseed Rape: postemergence; for Oilseed Rape plant response rating: 62 g ai/ha, scale 0 to 100
Outline: as §1

[7] = 31 g ai/ha, visual rating, scale 0 to 100 (0 no effect, 100 complete control), 13 to 15 days
[8] = 62 g ai/ha, scale 0 to 100 (0 no effect, 100 complete control), 13 to 15 days
[9] = 250 g ai/ha, scale 0 to 100 (0 no effect, 100 complete control)
[10] = 125 g ai/ha, scale 0 to 100, 0 no effect, 100 complete control
[11] = 500 g ai/ha, visual injury after approx. 10 days, 0 to 100 scale (0 no effect, 100 complete control)
[12] = Postemergence, 31 g ai/ha, visually evaluated after 13 to 15 days
[13] = postemergence, 250 g ai/ha, scale 0 to 100 (0 no effect, 100 complete control)
[14] = postemergence, 125 g ai/ha, scale 0 to 100, 0 no effect, 100 complete control
[15] = 250 g ai/ha, scale 0 to 100, 0 is no effect, 100 is complete control

## CCOc1cc(C(=O)NCC(F)(F)F)nn1Cc1ccnc(OC(F)F)c1 [Compound 128]
foxtail, giant; Preemergence, 250 g ai/ha
  Plant response rating (scale of 0 to 100), Foxtail, Giant: 100
foxtail, giant; [7]
  Foxtail, Giant plant response rating: 98
foxtail, giant; [8]
  Foxtail, Giant plant response rating: 100
foxtail, giant; 13 to 15 days
  Plant response rating, Foxtail, Giant: 100
kochia
  Plant response rating (scale of 0 to 100 where 0 is no effect and 100 is complete control), Kochia: 60
  Kochia plant response rating: 65
kochia; [9]
  Plant response rating, Kochia: 90
kochia; [10]
  Plant response rating, Kochia: 65
Ragweed [1]; Preemergence, 250 g ai/ha
  Plant response rating (scale of 0 to 100), Ragweed: 90
Ragweed [1]; [7]
  Ragweed plant response rating: 25
Ragweed [1]; [8]
  Ragweed plant response rating: 65
Ragweed [1]; 13 to 15 days
  Plant response rating, Ragweed: 85
Pigweed [2]; 125 g ai/ha, visual injury, 0 to 100 scale, approx. 10 days
  Pigweed plant response rating: 100
Pigweed [2]; [11]
  Pigweed plant response rating: 100
soybean; [12]
  Plant response rating (scale of 0 to 100 where 0 is no effect and 100 is complete control), Soybean: 65
soybean; 62 g ai/ha, scale 0 to 100
  Soybean plant response rating: 95
soybean; [9]
  Plant response rating, Soybean: 98
soybean; [10]
  Plant response rating, Soybean: 95
Ragweed [3]; [12]
  Plant response rating (scale of 0 to 100 where 0 is no effect and 100 is complete control), Ragweed: 50
Ragweed [3]; postemergence, 62 g ai/ha, scale 0 to 100
  Ragweed plant response rating: 40
Ragweed [3]; [13]
  Plant response rating, Ragweed: 85
Ragweed [3]; [14]
  Plant response rating, Ragweed: 85
Pigweed [4]; Preemergence, 250 g ai/ha
  Plant response rating (scale of 0 to 100), Pigweed: 100
Pigweed [4]; [7]
  Pigweed plant response rating: 100
Pigweed [4]; [8]
  Pigweed plant response rating: 100
Pigweed [4]; 13 to 15 days
  Plant response rating, Pigweed: 100
barnyardgrass
  Plant response rating, Barnyardgrass: 70
nutsedge, yellow
  Plant response rating (scale of 0 to 100 where 0 is no effect and 100 is complete control), Nutsedge, Yellow: 5
  Nutsedge, Yellow plant response rating: 5
nutsedge, yellow; [9]
  Plant response rating, Nutsedge, Yellow: 25
nutsedge, yellow; [10]
  Plant response rating, Nutsedge, Yellow: 10
Oilseed rape [5]; Preemergence, 250 g ai/ha
  Plant response rating (scale of 0 to 100), Oilseed Rape: 100
Oilseed rape [5]; [7]
  Oilseed Rape plant response rating: 100
Oilseed rape [5]; [8]
  Oilseed Rape plant response rating: 100
Oilseed rape [5]; 13 to 15 days
  Plant response rating, Oilseed Rape: 100
oat, wild
  Plant response rating (scale of 0 to 100 where 0 is no effect and 100 is complete control), Oat, Wild: 5
  Oat, Wild plant response rating: 10
oat, wild; [9]
  Plant response rating, Oat, Wild: 20
oat, wild; [10]
  Plant response rating, Oat, Wild: 25
Oilseed rape [6]; [12]
  Plant response rating (scale of 0 to 100 where 0 is no effect and 100 is complete control), Oilseed Rape: 50
Oilseed rape [6]
  Oilseed Rape plant response rating: 60
Oilseed rape [6]; [9]
  Plant response rating, Oilseed Rape: 90
Oilseed rape [6]; [10]
  Plant response rating, Oilseed Rape: 60

## CCCNC(=O)c1cc(OCC)n(Cc2ccnc(C(F)(F)F)c2)n1 [Compound 187]
foxtail, giant; [7]
  Foxtail, Giant plant response rating: 100
foxtail, giant; [8]
  Foxtail, Giant plant response rating: 100
foxtail, giant; 13 to 15 days
  Plant response rating, Foxtail, Giant: 100
foxtail, giant; [15]
  Foxtail, Giant plant response rating: 100
kochia
  Plant response rating (scale of 0 to 100 where 0 is no effect and 100 is complete control), Kochia: 85
  Kochia plant response rating: 90
kochia; [9]
  Plant response rating, Kochia: 90
kochia; [10]
  Plant response rating, Kochia: 90
Ragweed [1]; [7]
  Ragweed plant response rating: 80
Ragweed [1]; [8]
  Ragweed plant response rating: 100
Ragweed [1]; 13 to 15 days
  Plant response rating, Ragweed: 98
Ragweed [1]; [15]
  Ragweed plant response rating: 100
Pigweed [2]; 125 g ai/ha, visual injury approx. 10 days after treatment
  Pigweed plant response rating (0 to 100 scale): 0
Pigweed [2]; [11]
  Pigweed plant response rating: 0
soybean; [9]
  Plant response rating, Soybean: 98
soybean; [10]
  Soybean plant response rating: 95
Ragweed [3]; [13]
  Plant response rating, Ragweed: 85
Ragweed [3]; [14]
  Plant response rating, Ragweed: 50
Pigweed [4]; [7]
  Pigweed plant response rating: 70
Pigweed [4]; [8]
  Pigweed plant response rating: 100
Pigweed [4]; 13 to 15 days
  Plant response rating, Pigweed: 100
Pigweed [4]; [15]
  Pigweed plant response rating: 100
barnyardgrass
  Plant response rating, Barnyardgrass: 55
nutsedge, yellow
  Plant response rating (scale of 0 to 100 where 0 is no effect and 100 is complete control), Nutsedge, Yellow: 5
  Nutsedge, Yellow plant response rating: 5
nutsedge, yellow; [9]
  Plant response rating, Nutsedge, Yellow: 10
nutsedge, yellow; [10]
  Plant response rating, Nutsedge, Yellow: 5
Oilseed rape [5]; [7]
  Oilseed Rape plant response rating: 50
Oilseed rape [5]; [8]
  Oilseed Rape plant response rating: 90
Oilseed rape [5]; 13 to 15 days
  Plant response rating, Oilseed Rape: 95
Oilseed rape [5]; [15]
  Oilseed Rape plant response rating: 100
oat, wild
  Plant response rating (scale of 0 to 100 where 0 is no effect and 100 is complete control), Oat, Wild: 10
  Oat, Wild plant response rating: 15
oat, wild; [9]
  Plant response rating, Oat, Wild: 50
oat, wild; [10]
  Plant response rating, Oat, Wild: 30
Oilseed rape [6]
  Oilseed Rape plant response rating: 50
Oilseed rape [6]; [9]
  Plant response rating, Oilseed Rape: 80
Oilseed rape [6]; [10]
  Plant response rating, Oilseed Rape: 75
